Data on eleven molecules can be found in ChEMBL document CHEMBL1137115, “Preparation of novel aza-1,7-annulated indoles and their conversion to potent indolocarbazole kinase inhibitors” (Bioorg Med Chem Lett, 2004).

A value given as a limit tells only on which side of the number the result lay.

Assay [1] deals with Cyclin-dependent kinase 2/cyclin E (Homo sapiens, UniProt P24941). The assay is described as follows: Inhibition of Cyclin E-cyclin-dependent kinase 2. It is filed as protein-complex assay.
The subject of the next assay is HCT-116. In words: Antiproliferative activity was tested in human HCT116 (colon) cell line. It is filed as functional, cell-based.
The nature of assay [2]: Inhibition of Protein kinase A.
Assay [3] has as its target Cyclin-dependent kinase 4/cyclin D1 (Homo sapiens, UniProt P11802). In words: Inhibition of Cyclin D1-cyclin-dependent kinase 4. The format is protein-complex assay.

Chain of Cyclin-dependent kinase 4/cyclin D1 (P11802 whole entry): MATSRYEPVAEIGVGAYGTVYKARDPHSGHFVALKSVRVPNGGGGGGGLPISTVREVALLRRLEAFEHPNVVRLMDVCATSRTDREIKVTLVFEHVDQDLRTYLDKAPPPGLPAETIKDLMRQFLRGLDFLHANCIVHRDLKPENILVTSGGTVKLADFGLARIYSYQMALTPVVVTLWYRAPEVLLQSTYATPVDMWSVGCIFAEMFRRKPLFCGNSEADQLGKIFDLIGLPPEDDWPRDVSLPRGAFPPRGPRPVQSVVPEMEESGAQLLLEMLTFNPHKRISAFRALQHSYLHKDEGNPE
Chain of Cyclin-dependent kinase 4/cyclin D1 (P24385 whole entry, further chain): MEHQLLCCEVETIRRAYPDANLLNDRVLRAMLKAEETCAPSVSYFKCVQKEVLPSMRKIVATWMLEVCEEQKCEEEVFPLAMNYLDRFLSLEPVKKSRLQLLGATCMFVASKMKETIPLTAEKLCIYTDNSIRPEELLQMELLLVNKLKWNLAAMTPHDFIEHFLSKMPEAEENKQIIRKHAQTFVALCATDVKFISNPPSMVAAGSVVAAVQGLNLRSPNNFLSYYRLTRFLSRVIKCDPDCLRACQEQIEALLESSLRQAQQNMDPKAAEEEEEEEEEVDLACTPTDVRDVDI

As to `O=C1NC(=O)c2c1c1c3cc(F)c(F)cc3[nH]c1c1c2c2cccc3c2n1CCNC3`, the IC50 (commonly the concentration that gives 50% inhibition) in assay [1] is above 0.2 µM; in the assay with HCT-116 it was 0.4 µM; in assay [2] it was above 2 µM.

`CS(=O)(=O)N1CCn2c3c(cccc3c3c4c(c5c6ccccc6[nH]c5c32)C(=O)NC4=O)C1`: the half-maximal inhibitory concentration (IC50) was above 0.2 µM in assay [1], 1.6 µM in the assay on HCT-116, 0.05 µM in assay [3] and above 2 µM in assay [2].

`O=C1NC(=O)c2c1c1c3ccccc3[nH]c1c1c2c2cccc3c2n1CCCCNC3`: the IC50 in assay [1] came out at 0.2 µM; in the assay on HCT-116, 0.09 µM; in assay [3], 0.08 µM; in assay [2] it was 0.04 µM.

As to `O=C1NC(=O)c2c1c1c3ccc(F)cc3[nH]c1c1c2c2cccc3c2n1CCNC3`, the IC50 in assay [1] came out at 0.01 µM; in the assay on HCT-116 it was 0.2 µM; in assay [3], 0.03 µM; in assay [2], 0.43 µM.

As to `CC(C)N1CCn2c3c(cccc3c3c4c(c5c6ccccc6[nH]c5c32)C(=O)NC4=O)C1`, the IC50 in assay [1] is 0.78 µM; in the assay on HCT-116 it was 0.64 µM; in assay [3], 0.07 µM; in assay [2] it was above 2 µM.

Regarding `NCC(=O)N1CCn2c3c(cccc3c3c4c(c5c6ccccc6[nH]c5c32)C(=O)NC4=O)C1`, the IC50 was above 10 µM in the assay on HCT-116 and above 20 µM in assay [2].

As for `Cc1cn(S(=O)(=O)N2CCn3c4c(cccc4c4c5c(c6c7ccccc7[nH]c6c43)C(=O)NC5=O)C2)cn1`, the IC50 with HCT-116 is above 10 µM; in assay [3], 0.12 µM; in assay [2] it was above 2 µM.

For the molecule `O=C1NC(=O)c2c1c1c3ccc(C(F)(F)F)c(CO)c3[nH]c1c1c2c2cccc3c2n1CCNC3`, the figures for the IC50 (in the assay on HCT-116; in assay [3]) were 3.5 µM and 0.04 µM, respectively.

In the case of `O=C1NC(=O)c2c1c1c3cc(F)ccc3[nH]c1c1c2c2cccc3c2n1CCNC3`, the IC50 in assay [1] was above 0.2 µM; in the assay on HCT-116, 0.26 µM; in assay [3], 0.03 µM; in assay [2], 0.2 µM.

Turning to `O=C1NC(=O)c2c1c1c3ccccc3[nH]c1c1c2c2cccc3c2n1CCNC3`, the 50% inhibitory concentration (IC50) in assay [1] is 0.03 µM; in the assay with HCT-116, 0.31 µM; in assay [3], 0.027 µM; in assay [2] it was 0.16 µM.

With `O=C1NC(=O)c2c1c1c3ccc(C(F)(F)F)cc3[nH]c1c1c2c2cccc3c2n1CCNC3`, the IC50 is 0.21 µM in assay [1], 0.17 µM in the assay with HCT-116, 0.06 µM in assay [3] and above 2 µM in assay [2].
